Where two headings read alike, the source gives them in different places.
Assays:
[1] = test system: fasted rats; experiment: Glucose tolerance test using fasted rats; type: in vivo, Male Wistar rats; settings: for inhibition in vivo at 30 mg/kg / inhibition in vivo at 100 mg/kg / inhibition in vivo at 1 mg/kg / inhibition in vivo at 10 mg/kg: Rattus norvegicus, 30 min before glucose loading (1 g/kg i.p.); for inhibition in vivo at 30 mg/kg: dose 30 mg/kg oral; for inhibition in vivo at 100 mg/kg: dose 100 mg/kg oral; for inhibition in vivo at 1 mg/kg: dose 1 mg/kg oral; for inhibition in vivo at 10 mg/kg: dose 10 mg/kg oral; for blood glucose in hyperglycemia at 30 min after glucose loading / blood glucose level 120 min later when hyperglycemia was not observed: oral administration, versus control, Fig. 1 (Example 93), Fig. 2 (Example 65, various doses)
Method: Glucose tolerance test using fasted rats
Glucose (1 g/kg) was intraperitoneally administered and blood (0.2 ml) was taken at 30, 60 and 120 minutes later from the tail vein. […] As a control, used was carboxymethylcellulose. The suppression of increase in blood glucose was expressed by inhibition ratio (%) in the group administered with test drug, relative to the increase in blood glucose in the control group at 30 min after glucose loading, which was taken as 100%. The blood glucose after 120 min was also shown by the ratio (%) of changes relative to the control.

[2] = test system: fasted rats; experiment: Effects on blood glucose level of fasted rats; type: in vivo, Male Wistar rats; settings: oral administration to rats fasted for 16 hr, blood at 30, 60 and 120 minutes; Fig. 4
Method: Effects on blood glucose level of fasted rats
As a control, used was carboxymethylcellulose, and blood glucose after administration of tolbutamide and the compounds of the present invention was determined.

[3] = test system: fasted rats
[4] = 0.5 h, inhibition of increase in blood glucose relative to control at 30 min, read-out: ratio of decrease at 30 min later(%)
[5] = 2 h, blood glucose after 120 min, ratio of changes relative to control, read-out: ratio of decrease at 120 min later(%)

CC1(C(=O)CCC(=O)O)CCCCC1 [Example 61, 4-(1-methylcyclohexyl)-4-oxobutanoic acid]
inhibition in vivo at 30 mg/kg [1, 4]: 31.5% | inhibition in vivo at 30 mg/kg [1, 5]: -5.7%

CC(=O)CCC(=O)C1(C)CCCCC1 [Example 6, 1-(1-methyl-1-cyclohexyl)-1,4-pentanedione]
inhibition in vivo at 100 mg/kg [1, 4]: 19.8% | inhibition in vivo at 100 mg/kg [1, 5]: 15%

CC(=O)CCC(=O)c1ccc(-c2ccccc2)cc1 [Example 2, 1-(4-biphenylyl)-1,4-pentanedione]
inhibition in vivo at 100 mg/kg [1, 4]: 29.7% | inhibition in vivo at 100 mg/kg [1, 5]: 3.8%

O=C(O)CCC(=O)c1ccccc1 [Example 46, 4-oxo-4-phenylbutanoic acid]
inhibition in vivo at 1 mg/kg [1, 4]: 22.5% | inhibition in vivo at 10 mg/kg [1, 4]: 19.8% | inhibition in vivo at 1 mg/kg [1, 5]: 10.3% | inhibition in vivo at 10 mg/kg [1, 5]: -7%

CC(=O)NCC(=O)c1ccccc1 [Example 80, 2-acetaminoacetophenone]
inhibition in vivo at 1 mg/kg [1, 4]: 15.5% | inhibition in vivo at 10 mg/kg [1, 4]: 12.4% | inhibition in vivo at 1 mg/kg [1, 5]: -2.4% | inhibition in vivo at 10 mg/kg [1, 5]: -1.5%

O=C(O)CCC(=O)c1ccc(-c2ccccc2)cc1 [Example 47, 4-(4-biphenylyl)-4-oxobutanoic acid]
inhibition in vivo at 1 mg/kg [1, 4]: 26.5% | inhibition in vivo at 10 mg/kg [1, 4]: 20.7% | inhibition in vivo at 30 mg/kg [1, 4]: 29.1% | inhibition in vivo at 1 mg/kg [1, 5]: 14.7% | inhibition in vivo at 10 mg/kg [1, 5]: 4.7% | inhibition in vivo at 30 mg/kg [1, 5]: 6.8%

CC(=O)CCC(=O)C1CCCCC1 [Example 5, 1-cyclohexyl-1,4-pentanedione]
inhibition in vivo at 100 mg/kg [1, 4]: 21.4% | inhibition in vivo at 100 mg/kg [1, 5]: 7.3%

O=C(CC(C(=O)O)C(=O)O)c1ccc(-c2ccccc2)cc1 [Example 69, 2-[2-(4-biphenylyl)-2-oxoethyl]propanedioic acid]
inhibition in vivo at 1 mg/kg [1, 4]: 22.1% | inhibition in vivo at 10 mg/kg [1, 4]: 24.6% | inhibition in vivo at 1 mg/kg [1, 5]: 4.9% | inhibition in vivo at 10 mg/kg [1, 5]: 3%

CC(=O)CCC(=O)c1ccc(CO)cc1 [Example 20, 1-(4-hydroxymethylphenyl)-1,4-pentanedione]
inhibition in vivo at 30 mg/kg [1, 4]: 21.3% | inhibition in vivo at 30 mg/kg [1, 5]: 10.7%

O=C1CC(C(=O)c2ccc(-c3ccccc3)cc2)CO1 (racemic) [Example 82, (±)-dihydro-4-(4'-phenylbenzoyl)-2(3H)-furanone]
inhibition in vivo at 1 mg/kg [1, 4]: 24.6% | inhibition in vivo at 1 mg/kg [1, 5]: -8.2%

CCCCNC(=O)NS(=O)(=O)c1ccc(C)cc1 [tolbutamide]
fasting blood glucose [2]: lowered the fasting blood glucose | effect as a therapeutic agent for diabetes for treating hyperglycemia ([3]; oral, in the dose that does not cause hypoglycemia, Fig. 3): did not show effective results | blood glucose 120 min later ([3]; rat, in vivo, po): induced hypoglycemia

CC1(C(=O)c2ccc(-c3ccccc3)cc2)CCC(=O)O1 (single isomer, unassigned; (-)) [Example 93, (-)-dihydro-5-methyl-5-(4'-phenylbenzoyl)-2(3H)-furanone]
fasting blood glucose [2]: did not lower the fasting blood glucose | blood glucose in hyperglycemia at 30 min after glucose loading [1]: significantly decreased the blood glucose | blood glucose level 120 min later when hyperglycemia was not observed [1]: did not unnecessarily lower the blood glucose level

O=C(O)CCC(=O)c1ccc(CO)cc1 [Example 49, 4-[4-(hydroxymethyl)phenyl]-4-oxobutanoic acid]
inhibition in vivo at 10 mg/kg [1, 4]: 25.2% | inhibition in vivo at 10 mg/kg [1, 5]: 2.2%

O=C(O)CCC(=O)C1CCCCC1 [Example 58, 4-cyclohexyl-4-oxobutanoic acid]
inhibition in vivo at 1 mg/kg [1, 4]: 12.5% | inhibition in vivo at 10 mg/kg [1, 4]: 26.1% | inhibition in vivo at 30 mg/kg [1, 4]: 26.7% | inhibition in vivo at 1 mg/kg [1, 5]: -0.9% | inhibition in vivo at 10 mg/kg [1, 5]: 4.8% | inhibition in vivo at 30 mg/kg [1, 5]: -2.8%

CC(=O)CCC(=O)c1ccccc1 [Example 1, 1-phenyl-1,4-pentanedione]
inhibition in vivo at 30 mg/kg [1, 4]: 18.9% | inhibition in vivo at 100 mg/kg [1, 4]: 14.9% | inhibition in vivo at 30 mg/kg [1, 5]: 4.1% | inhibition in vivo at 100 mg/kg [1, 5]: 1.1%

C[C@H]1CC[C@H](C(=O)CCC(=O)O)CC1 [Example 65, trans-4-(4-methylcyclohexyl)-4-oxobutanoic acid]
inhibition in vivo at 10 mg/kg [1, 4]: 31.7% | inhibition in vivo at 30 mg/kg [1, 4]: 41.2% | inhibition in vivo at 10 mg/kg [1, 5]: 5% | inhibition in vivo at 30 mg/kg [1, 5]: 10.5% | blood glucose in hyperglycemia at 30 min after glucose loading [1]: tends to show significant decrease in the blood glucose level | blood glucose level 120 min later when hyperglycemia was not observed [1]: does not unnecessarily lower the blood glucose level

O=C(O)CCC(=O)c1ccc2ccccc2c1 [Example 74, 4-(2-naphthyl)-4-oxobutanoic acid]
inhibition in vivo at 10 mg/kg [1, 4]: 21.5% | inhibition in vivo at 10 mg/kg [1, 5]: -0.2%

O=C1CC(C(=O)c2ccccc2)CO1 (racemic) [Example 81, (±)-4-benzoyldihydro-2(3H)-furanone]
inhibition in vivo at 1 mg/kg [1, 4]: 23.7% | inhibition in vivo at 10 mg/kg [1, 4]: 20.7% | inhibition in vivo at 1 mg/kg [1, 5]: 1.7% | inhibition in vivo at 10 mg/kg [1, 5]: 6%

— patent EP0885869A1, “THERAPEUTIC AGENT FOR DIABETES” (Japan Tobacco Inc., priority 1996, dated 1997)
